Common to all, as to assay type: biochemical
Assay [1] has as its system horse skeletal myoglobin (Mb). As to the kind of experiment: Carbon monoxide release (Mb-assay) without esterase/lipase. To be noted: for carbon monoxide release without esterase/lipase: Mb solution, closed cell, 37° C.; for carbon monoxide release without esterase/lipase after exposure to air: cell opened to air for 2 s. The method, then:
(§1) For this purpose, a solution of 30 mg Mb in 15 mL buffer was degassed by bubbling with argon for 10 min, then reduced by addition of an excess of Na2S2O4 and degassed again for 10 min. The concentration was determined by measuring a 1:10 diluted solution and using the following equation: A=ελ·c·l with ε408 nm=188000 L mol^−1 cm^−1
(§2) A stock solution of a complex in DMSO and a solution of the esterase in phosphate buffer were added under argon before the cell was closed to prevent re-oxidation of the Fe(II) in the Mb solution to Fe(III). […] Equivalents of the esterase are given relative to the inventive complex.
The Mb solution (c=93 μM) was reduced by the addition of 22 mg (126.4 μmol, 91 eq) of Na2S2O4 in 0.1 mL buffer. 0.7 mg (2.8 μmol) of 2-methoxycyclohexa-1,3-dienetricarbonyliron (0) were dissolved in 70 μL of DMSO to provide a 0.039 M solution. For the measurement, 6 μL (2.39·10^−7 mol, 1.3 eq) of this solution were added to 2.3 mL of the Mb solution (2.14·10^−7 mol, 1 eq).

In assay [2] the test system is lipase from Candida rugosa. Also noted: key to cleaved by lipase from Candida rugosa: “+” indicates kinetic racemic resolution; “−” means that no reaction took place.
Assay [3] relates to pig liver esterase (PLE). Also noted: key to cleaved by PLE: “+” indicates kinetic racemic resolution; “−” means that no reaction took place.
Assay [4] concerns pig liver esterase (PLE). As to the kind of experiment: Carbon monoxide release (Mb-assay) with pig liver esterase. To be noted: Mb solution, closed cell, 37° C. The protocol: as §1, §2
The Mb solution (c=76 μM) was reduced by the addition of 23 mg (132.1 μmol, 116 eq) of Na2S2O4 in 0.1 mL buffer. 1.7 mg (6.2 μmol) of rac-96 were dissolved in 160 μL of DMSO to provide a 0.038 M solution. For the measurement, 6 μL (2.29·10^−7 mol, 1.3 eq) of this solution were added to 2.3 mL of the Mb solution (1.75·10^−7 mol, 1 eq) and 70 μL (approximately 0.01 eq) of a solution of 0.7 mg pig liver esterase (PLE) in 240 μL buffer.
The Mb solution (c=56 μM) was reduced by the addition of 22 mg (126.4 μmol, 151 eq) of Na2S2O4 in 0.1 mL buffer. 1.1 mg (3.0 μmol) of rac-13 were dissolved in 100 μL of DMSO to provide a 0.030 M solution. For the measurement, 3 μL (9.06·10^−8 mol, 0.7 eq) of this solution were added to 2.3 mL of the Mb solution (1.28·10^−7 mol, 1 eq) and 70 μL (approximately 0.01 eq) of a solution of 0.6 mg PLE in 240 μL buffer.

Assay [5] relates to lipase from Candida rugosa. As to the kind of experiment: Carbon monoxide release (Mb-assay) with lipase from Candida rugosa. The note with it: for carbon monoxide release with lipase from Candida rugosa: Mb solution, closed cell, 37° C. The protocol:
as §1, §2
The Mb solution (c=88 μM) was reduced by the addition of 22 mg (126.4 μmol, 95 eq) of Na2S2O4 in 0.1 mL buffer. 3.4 mg (12 μmol) of rac-86 were dissolved in 300 μL of DMSO to provide a 0.041 M solution. For the measurement, 6 μL (2.45·10^−7 mol, 1.2 eq) of this solution were added to 2.3 mL of the Mb solution (2.03·10^−7 mol, 1 eq) and 70 μL (approximately 0.09 eq) of a solution of 5 mg lipase from Candida rugosa in 240 μL buffer.
The Mb solution (c=95 μM) was reduced by the addition of 23 mg (132.1 μmol, 92 eq) of Na2S2O4 in 0.1 mL buffer. 1.8 mg (5.6 μmol) of rac-87 were dissolved in 180 μL of DMSO to provide a 0.031 M solution. For the measurement, 12 μL (3.74·10^−7 mol, […]) of this solution were added to 2.3 mL of the Mb solution (2.19·10^−7 mol, 1 eq) and 140 μL (approximately 0.17 eq) of a solution of 15 mg lipase from Candida rugosa in 500 μL buffer.

In assay [6] the test system is lipase from Candida rugosa. The note with it: open tube, 10 mg complex, 20 mg lipase.
Setting [7] is: time 0 min, 12 mg complex, 15 mg enzyme.
[8] abbreviates: time 110 min, 12 mg complex, 15 mg enzyme.

Where two headings read alike, the source gives them in different places.

For the compound `COC1=CCCC=C1.O=[C]=[Fe](=[C]=O)=[C]=O` [2-methoxycyclohexa-1,3-dienetricarbonyliron (0), reference compound], in assay [1], the “carbon monoxide release without esterase/lipase” value is reported as “no carbon monoxide release” and the “carbon monoxide release without esterase/lipase after exposure to air” value is “no carbon monoxide was released”. Besides, in assay [2] (General Procedure I), the “cleaved by lipase from Candida rugosa” value was “−” and the “reaction with lipase from Candida rugosa” value is on record as “did not react”. Further, in the assay with pig liver esterase (PLE) [3] (General Procedure I), the “cleaved by PLE” value is “−” and the “reaction with PLE” value was “did not react”.

Turning to `CC(=O)OC1=CC(C)(C)CC(OC(C)=O)=C1.[C-]#[O+].[C-]#[O+].[C-]#[O+].[Fe]` [rac-13, reference compound], the “carbon monoxide release without esterase/lipase” value in assay [1] is listed as “no significant amount of carbon monoxide was released”. Further, the “cleaved by lipase from Candida rugosa” value in assay [2] (General Procedure I) is listed as “−”. For the same compound, the “carbon monoxide release with pig liver esterase” value in the assay with pig liver esterase (PLE) [4] is given as “carbon monoxide release”. Also, in the assay with pig liver esterase (PLE) [3] (General Procedure I), the “cleaved by PLE” value was “+”. Besides, the “conversion (%)” value in the assay with pig liver esterase (PLE) [3] (time 15 min, 13 mg complex, 0.8 mg enzyme) stood at 3%; in the assay on pig liver esterase (PLE) [3] (time 30 min, 13 mg complex, 0.8 mg enzyme) it was 12%; in the assay on pig liver esterase (PLE) [3] (time 45 min, 13 mg complex, 0.8 mg enzyme), 54%; in the assay with pig liver esterase (PLE) [3] (time 150 min, 13 mg complex, 0.8 mg enzyme) it was 64%; in the assay on pig liver esterase (PLE) [3] (time 210 min, 13 mg complex, 0.8 mg enzyme), 80%.

As to `CC(=O)OC1=CCCC=C1.[C-]#[O+].[C-]#[O+].[C-]#[O+].[Fe]` [rac-86, (RS)-[η^4-Cyclohexa-1,5-dien-1-yl-tricarbonyliron(0)]acetate], in assay [5], the “carbon monoxide release with lipase from Candida rugosa” value was “carbon monoxide release”. Further, the “conversion (%)” value in assay [6] (time 0 min) is reported as 0/0%; in assay [6] (time 15 min) it was 60%; in assay [6] (time 30 min), 79%; in assay [6] (time 60 min), 85%; in assay [6] (time 110 min), 97%; in assay [2] (time 0 min, 8 mg enzyme), 0/0%. Moreover, the “conversion (%)” value in assay [2] (time 15 min, 8 mg enzyme) is 32%; in assay [2] (time 30 min, 8 mg enzyme), 68%; in assay [2] (time 60 min, 8 mg enzyme), 82%; in assay [2] (time 110 min, 8 mg enzyme) it was 93%; in assay [2] (time 240 min, 8 mg enzyme), 98%. Besides, the “carbon monoxide release without esterase/lipase” value in assay [1] is “no carbon monoxide was released”. Also, the “cleaved by lipase from Candida rugosa” value in assay [2] (General Procedure I) was “+”. Also, the “carbon monoxide release with pig liver esterase” value with pig liver esterase (PLE) [4] was “carbon monoxide release”. The “cleaved by PLE” value with pig liver esterase (PLE) [3] (General Procedure I) was “−”.

Turning to `CC(C)(C)C(=O)OC1=CCCC=C1.[C-]#[O+].[C-]#[O+].[C-]#[O+].[Fe]` [rac-87, (RS)-[η^4-Cyclohexa-1,5-dien-1-yl-tricarbonyliron(0)] pivalate], the “carbon monoxide release with lipase from Candida rugosa” value in assay [5] is recorded as “no carbon monoxide release”. Moreover, in assay [5] (cell opened to air for 2 s after 360 min, conversion of Mb-O2 to MbCO), the “carbon monoxide release with lipase from Candida rugosa after exposure to air” value is “carbon monoxide release”. In addition, the “carbon monoxide release without esterase/lipase after exposure to air” value in assay [1] is on record as “no carbon monoxide was released”. Further, the “cleaved by lipase from Candida rugosa” value in assay [2] (General Procedure I) is on record as “+”. Also, the “conversion (%)” value in assay [2] (time 0 min, 8 mg enzyme) is on record as 0/0%; in assay [2] (setting [7]) it was 0/0%; in assay [2] (time 30 min, 8 mg enzyme) it was 4%; in assay [2] (time 60 min, 8 mg enzyme) it was 6%; in assay [2] (time 110 min, 8 mg enzyme), 8%; in assay [2] (setting [8]), 47%. Besides, the “conversion (%)” value in assay [2] (time 240 min, 8 mg enzyme) amounted to 12%; in assay [2] (time 240 min, 12 mg complex, 15 mg enzyme), 60%; in assay [2] (time 24 h, 8 mg enzyme), 47%; in assay [2] (time 24 h, 12 mg complex, 15 mg enzyme), 73%. The “cleaved by PLE” value in the assay with pig liver esterase (PLE) [3] (General Procedure I) is listed as “−”.

Consider `CC(=O)OC1=CC=CCC1.[C-]#[O+].[C-]#[O+].[C-]#[O+].[Fe]` [rac-96, (RS)-[θ^4-Cyclohexa-1,3-dien-1-yl-tricarbonyliron(0)]acetate], for which the “conversion (%)” value in assay [6] (time 0 min) is 0/0%; in assay [6] (time 15 min) it was 65%; in assay [6] (time 30 min), 77%; in assay [6] (time 60 min) it was 79%; in assay [6] (time 110 min), 81%; in assay [2] (setting [7]), 0/0%. Also, the “conversion (%)” value is reported as 43% in assay [2] (time 15 min, 12 mg complex, 15 mg enzyme); 57% in assay [2] (time 30 min, 12 mg complex, 15 mg enzyme); 76% in assay [2] (time 60 min, 12 mg complex, 15 mg enzyme); 83% in assay [2] (setting [8]); 0% with pig liver esterase (PLE) [3] (time 0 min, 10 mg complex, 1 mg enzyme); 28% in the assay with pig liver esterase (PLE) [3] (time 120 min, 10 mg complex, 1 mg enzyme). The “conversion (%)” value is on record as 45% in the assay with pig liver esterase (PLE) [3] (time 180 min, 10 mg complex, 1 mg enzyme); 52% in the assay on pig liver esterase (PLE) [3] (time 300 min, 10 mg complex, 1 mg enzyme); 77% with pig liver esterase (PLE) [3] (time 420 min, 10 mg complex, 1 mg enzyme); 84% in the assay on pig liver esterase (PLE) [3] (time 540 min, 10 mg complex, 1 mg enzyme); 89% in the assay on pig liver esterase (PLE) [3] (time 660 min, 10 mg complex, 1 mg enzyme). Also, in assay [1], the “carbon monoxide release without esterase/lipase” value is “no carbon monoxide release”. Further, the “cleaved by lipase from Candida rugosa” value in assay [2] (General Procedure I) was “+”. For the same compound, the “carbon monoxide release with pig liver esterase” value in the assay with pig liver esterase (PLE) [4] is recorded as “carbon monoxide release”. The “cleaved by PLE” value in the assay with pig liver esterase (PLE) [3] (General Procedure I) is “+”.
